# In patent US20140079636A1, “TARGETED THERAPEUTICS” (priority 2012, published 2014):
# Test system: MCF-7 breast cancer cells
# Assay: Mouse xenograft efficacy in an MCF-7 breast cancer model
# Type: in vivo
# Details: 150 or 100 mg/kg/1×wk IV, versus irinotecan alone or ganetespib + irinotecan
# Procedure: MCF-7 breast cancer cells were purchased from ATCC. […] Fetal bovine serum was then be added to the medium. The final concentration of fetal bovine serum was 10%. Cells were cultured at 37° C. and 5% CO2.
# Mice that were not put on treatment were euthanized. Animals were sourced through CRL (Wilmington, Mass.).
row,SMILES,Tumor growth suppression (tumor volume)
1,"CCc1c2c(nc3ccc(OC(=O)N4CCC(CCn5ccc6cc(-n7c(O)nnc7-c7cc(C(C)C)c(O)cc7O)ccc65)CC4)cc13)-c1cc3c(c(=O)n1C2)COC(=O)[C@]3(O)CC [SDC-TRAP-0063, 4,11-diethyl-4-hydroxy-3,14-dioxo-3,4,12,14-tetrahydro-1H-pyrano[3′,4′:6,7]indolizino[1,2-b]quinolin-9-yl 4-(2-(5-(3-(2,4-dihydroxy-5-isopropylphenyl)-5-hydroxy-4H-1,2,4-triazol-4-yl)-1H-indol-1-yl)ethyl)piperidine-1-carboxylate]",greater tumor growth suppression than effector moiety irinotecan alone or unconjugated binding moiety ganetespib and effector moiety irinotecan administered together

# Test system: not listed separately
# Assay: Tissue distribution of ganetespib in female CD-1 nu/nu mice bearing RERF human NSCLC xenografts
# Type: in vivo, mouse
# Details: 5 min time point
# Procedure: Tissue Distribution of ganetespib in Female CD-1 nu/nu Mice Bearing RERF Human NSCLC Xenografts
# To confirm the distribution of ganetespib in blood, livers, kidneys, brains, hearts, lungs and tumors after IV administration of ganetespib to female CD-1 nu/nu mice bearing RERF human NSCLC xenografts, and to examine metabolic profiles of ganetespib in plasma, red blood cells, and above tissues.
# Animals: female CD-1 nu/nu mice bearing RERF human NSCLC xenografts (N=3/group)
# Dosage: 50 mg/kg Dose level: 10 mL/kg Formulation: 10% DMSO, 18% Cremophor RH40, 3.6% dextrose solution (DRD) Bleeding time points: 5 min, 6, 24 hr Collected tissues: blood (plasma and red blood cells (RBC)), liver, kidneys, brain, heart, lung, tumor
# Protein precipitation: 50 μL of 10 times diluted plasma or RBC+150 μL ACN (10 mM NH4OAc), vortexed and centrifuged at 10000 rpm for 8 min; 150 μL supernatant+150 μL water (10 mM NH4OAc)
# Protein precipitation: 100 μL homogenized tissue (1:3 tissue:PBS buffer)+100 μL ACN (10 mM NH4OAc), vortexed and centrifuged at 10000 rpm for 8 min
row,SMILES,Mean concentration in plasma relative to RBC (times higher)
1,CC(C)c1cc(-c2n[nH]c(=O)n2-c2ccc3c(ccn3C)c2)c(O)cc1O [ganetespib],about 10

# Test system: HER2
# Assay: Her2 degradation assay with BT-474 cell line (Example 12, FACS)
# Type: cell-based, human
# Details: BT-474 cells
# Description: HER2 has emerged as a key target for anticancer drugs due to its intrinsic involvement in the phosphatidylinositol-3-kinase-Akt/proteinkinase B (PI3K-Akt) and the mitogen-activated protein kinase (MAPK) pathways, both of which suppress apoptosis and promote tumor cell survival, gene transcription, angiogenesis, cellular proliferation, migration, mitosis, and differentiation. The degradation of HER2 is a measure of efficacy of anticancer therapeutics that target Hsp90. Accordingly, the SDC-TRAP molecules of the invention that comprise a binding moiety that binds Hsp90 were tested in the following HER2 degradation assay.
# BT-474 cells (human breast cancer cell line ATCC HTB-20) were obtained from ATCC and seeded into 12-well tissue culture plates at 0.2×10^6/1.8 mL/well. […] Each test compound was titrated in 4-fold dilutions from 5 μM to 78 nM with DMSO and 200 μL of the titration was added to each well of the cell plate. The DMSO final concentration was 0.2%. Cells were incubated overnight at 37° C. in 5% CO2.
# Media was decanted from the plate, cells were washed 1× in PBS. 400 μL trypsin (EDTA) per well was added and the cells were incubated for 2 to 3 minutes. […] The cytometer readout was normalized and the potency of each compound is evaluated with IC50 calculated with XL Fit software.
row,SMILES,IC50 [µM]
1,CC(C)c1cc(-c2nnc(O)n2-c2ccc(CN3CCN(C(=O)CCn4cc(F)c(=O)[nH]c4=O)CC3)cc2)c(O)cc1O [SDC-TRAP-0049],> 5

# Target: T1, Hsp90α (Homo sapiens, UniProt P07900)
# T1 construct: purchased BPS Bioscience 50294
# Assay: Hsp90α binding assay (fluorescence polarization, FITC-labeled geldanamycin)
# Details: read-out: Hsp90 binding EC50
# Procedure: An Hsp90^α fluorescence assay kit from BPS Bioscience (Cat #50294) containing Hsp90 recombinant enzyme, FITC-labeled geldanamycin, assay buffer and a low binding 384-well plate was used to assay Hsp90^α binding. Dithiothreitol (DTT)(Cat #D0643) and bovine serum albumin (BSA)(Cat #A2153) were obtained from Sigma-Aldrich. Fluorescence polarization was measured using a PHERAstar microplate reader from BMG LABTECH GmbH, Ortenherg, Germany.
# The compounds were diluted to 1 mM in DMSO and loaded into a compound dilution plate to make 3-fold dilutions yielding a total of 8 concentrations. 1 µL of compound was transferred from the dilution plate to the low binding assay plate provided in the assay kit. 5 mL of Hsp90^□ binding solution was prepared having a final concentration of 7 ng/µL Hsp90^□, 5 nM FITC-labeled geldanamycin, 2 mM DTT and 0.1 mg/mL BSA. 49 μL of binding solution was added to each microplate well, incubated at room temperature for 1 hour, then read using the PHERAstar microplate reader. The high control sample contained no compound plus Hsp90^α; the low control sample contained no compound and no Hsp90^α. […] The IC50 was calculated using GraphPad Prism 4 software.
row,SMILES,EC50 [nM]
1,"CCc1c2c(nc3ccc(OC(=O)N4CCN(c5ccc(-n6c(O)nnc6-c6cc(C(C)C)c(O)cc6O)cc5)CC4)cc13)-c1cc3c(c(=O)n1C2)COC(=O)C3(O)CC (stereo not drawn) [SDC-TRAP-0045, 4,11-diethyl-4-hydroxy-3,14-dioxo-3,4,12,14-tetrahydro-1H-pyrano[3′,4′:6,7]indolizino[1,2-b]quinolin-9-yl 4-(4-(3-(2,4-dihydroxy-5-isopropylphenyl)-5-hydroxy-4H-1,2,4-triazol-4-yl)phenyl)piperazine-1-carboxylate]",96.6
2,"CCc1c2c(nc3ccc(OC(=O)N4CCN(Cc5ccc(-n6c(O)nnc6-c6cc(C(C)C)c(O)cc6O)cc5)CC4)cc13)-c1cc3c(c(=O)n1C2)COC(=O)C3(O)CC (stereo not drawn) [SDC-TRAP-0046, 4,11-diethyl-4-hydroxy-3,14-dioxo-3,4,12,14-tetrahydro-1H-pyrano[3′,4′:6,7]indolizino[1,2-b]quinolin-9-yl 4-(4-(3-(2,4-dihydroxy-5-isopropylphenyl)-5-hydroxy-4H-1,2,4-triazol-4-yl)benzyl)piperazine-1-carboxylate]",102
3,"CCc1c2c(nc3ccc(OC(=O)N4CCC(CCn5ccc6cc(-n7c(O)nnc7-c7cc(C(C)C)c(O)cc7O)ccc65)CC4)cc13)-c1cc3c(c(=O)n1C2)COC(=O)[C@]3(O)CC [SDC-TRAP-0063, 4,11-diethyl-4-hydroxy-3,14-dioxo-3,4,12,14-tetrahydro-1H-pyrano[3′,4′:6,7]indolizino[1,2-b]quinolin-9-yl 4-(2-(5-(3-(2,4-dihydroxy-5-isopropylphenyl)-5-hydroxy-4H-1,2,4-triazol-4-yl)-1H-indol-1-yl)ethyl)piperidine-1-carboxylate]",157
4,"CCc1c2c(nc3ccc(O)cc13)-c1cc3c(c(=O)n1C2)COC(=O)[C@@]3(CC)OC(=O)N1CCC(CCn2ccc3cc(-n4c(O)nnc4-c4cc(C(C)C)c(O)cc4O)ccc32)CC1 [SDC-TRAP-0064, (S)-4,11-diethyl-9-hydroxy-3,14-dioxo-3,4,12,14-tetrahydro-1H-pyrano[3′,4′:6,7]indolizino[1,2-b]quinolin-4-yl 4-(2-(5-(3-(2,4-dihydroxy-5-isopropylphenyl)-5-hydroxy-4H-1,2,4-triazol-4-yl)-1H-indol-1-yl)ethyl)piperidine-1-carboxylate]",122
5,"COc1cc(O)c(-c2nnc(C(=O)NC(C)C)n2-c2ccc(CN3CCC(C(=O)Nc4cccc5c4CN(C4CCC(=O)NC4=O)C5=O)CC3)cc2)cc1C(C)C (stereo not drawn) [SDC-TRAP-0115, N-(2-(2,6-dioxopiperidin-3-yl)-1-oxoisoindolin-4-yl)-1-(4-(3-(2-hydroxy-5-isopropyl-4-methoxyphenyl)-5-(isopropylcarbamoyl)-4H-1,2,4-triazol-4-yl)benzyl)piperidine-4-carboxamide]",203
6,"CC(C)c1cc(-c2nnc(O)n2-c2ccc(CC3CCN(CC(=O)Nc4cccc5c4CN(C4CCC(=O)NC4=O)C5=O)CC3)cc2)c(O)cc1O (stereo not drawn) [SDC-TRAP-0116, 2-(4-(4-(3-(2,4-dihydroxy-5-isopropylphenyl)-5-hydroxy-4H-1,2,4-triazol-4-yl)benzyl)piperidin-1-yl)-N-(2-(2,6-dioxopiperidin-3-yl)-1-oxoisoindolin-4-yl)acetamide]",159
7,"CC(C)c1cc(-c2nnc(O)n2-c2ccc(CC(=O)N(C)CCOC(=O)Nc3cccc4c3CN(C3CCC(=O)NC3=O)C4=O)cc2)c(O)cc1O (stereo not drawn) [SDC-TRAP-0127, 2-(2-(4-(3-(2,4-dihydroxy-5-isopropylphenyl)-5-hydroxy-4H-1,2,4-triazol-4-yl)phenyl)-N-methylacetamido)ethyl(2-(2,6-dioxopiperidin-3-yl)-1-oxoisoindolin-4-yl)carbamate]",102
8,"CCNC(=O)c1nnc(-c2cc(C(C)C)c(O)cc2O)n1-c1ccc(CN2CCC(C(=O)N3CCC(n4cc(-c5cnc(N)c(O[C@H](C)c6c(Cl)ccc(F)c6Cl)c5)cn4)CC3)CC2)cc1 [SDC-TRAP-0134, (R)-4-(4-((4-(4-(4-(6-amino-5-(1-(2,6-dichloro-3-fluorophenyl)ethoxy)pyridin-3-yl)-1H-pyrazol-1-yl)piperidine-1-carbonyl)piperidin-1-yl)methyl)phenyl)-5-(2,4-dihydroxy-5-isopropylphenyl)-N-ethyl-4H-1,2,4-triazole-3-carboxamide]",95.4
9,"CCNC(=O)c1nnc(-c2cc(C(C)C)c(O)cc2O)n1-c1ccc(CN2CCC(C(=O)N3CCC(C(=O)N[C@H]4C[C@H](O[C@H]5C[C@](O)(C(=O)CO)Cc6c(O)c7c(c(O)c65)C(=O)c5c(OC)cccc5C7=O)O[C@@H](C)[C@H]4O)CC3)CC2)cc1 [SDC-TRAP-0198, 1-(1-(4-(3-(2,4-dihydroxy-5-isopropylphenyl)-5-(ethylcarbamoyl)-4H-1,2,4-triazol-4-yl)benzyl)piperidine-4-carbonyl)-N-((2S,3S,4S,6R)-3-hydroxy-2-methyl-6-(((1S,3S)-3,5,12-trihydroxy-3-(2-hydroxyacetyl)-10-methoxy-6,11-dioxo-1,2,3,4,6,11-hexahydrotetracen-1-yl)oxy)tetrahydro-2H-pyran-4-yl)piperidine-4-carboxamide]",93.3
10,"CCc1c2c(nc3ccc(OC(=O)N4CCC[C@H]4C(=O)N4CCN(c5ccc(-n6c(O)nnc6-c6cc(C(C)C)c(O)cc6O)cc5)CC4)cc13)-c1cc3c(c(=O)n1C2)COC(=O)[C@]3(O)CC [SDC-TRAP-0204, (S)—(S)-4,11-diethyl-4-hydroxy-3,14-dioxo-3,4,12,14-tetrahydro-1H-pyrano[3′,4′:6,7]indolizino[1,2-b]quinolin-9-yl 2-(4-(4-(3-(2,4-dihydroxy-5-isopropylphenyl)-5-hydroxy-4H-1,2,4-triazol-4-yl)phenyl)piperazine-1-carbonyl)pyrrolidine-1-carboxylate]",82.6
11,CCNC(=O)c1nnc(-c2cc(C(C)C)c(O)cc2O)n1-c1ccc(OC2CCN(C(=O)[C@@H]3CCCN3C(=O)Oc3ccc4nc5c(c(CC)c4c3)Cn3c-5cc4c(c3=O)COC(=O)[C@]4(O)CC)CC2)cc1 [SDC-TRAP-0209],54.6
12,CCc1c2c(nc3ccc(OC(=O)N4CCC[C@H]4C(=O)N4CCC(CCn5ccc6cc(-n7c(O)nnc7-c7cc(C(C)C)c(O)cc7O)ccc65)CC4)cc13)-c1cc3c(c(=O)n1C2)COC(=O)[C@]3(O)CC [SDC-TRAP-0210],91
